{"source": "patent US20090042987A1", "about": "“TREATMENT OF NEUROPATHIC PAIN” (priority 2007, published 2009)", "key": {"[1]": {"test_system": "drug-naïve STZ-diabetic rats", "assay": "von Frey paw withdrawal thresholds, drug-naïve STZ-diabetic rats, Example 2", "assay_type": "in vivo, rat", "settings": "for Mean duration of action / Time of peak anti-allodynia post-dosing: 7th twice-daily dose; for Mean (±SEM) AUC (area under the normalized PWT versus time curve) / Mean (±SEM) Peak response (PWT) / Mean (±SEM) % MPR at peak: after 7th consecutive twice-daily dose; for Mean (±SEM) % MPR at peak: 100% MPR = full reversal of tactile allodynia", "procedure": "Experimental Animals Ethical approval for this study was obtained from the Animal Experimentation Ethics Committee of The University of Queensland. Adult male Sprague-Dawley (SD) rats (222±4 g) were used for this study. Rats were housed in a temperature controlled room (21+2.0 C) with a 12/12 hour light/dark cycle. Food and water were available ad libitum. Initiation of drug administration occurred at 8-11 weeks post-STZ administration for rats in Experiment 1 (PCT-001) and at 10-12 weeks post-STZ administration for rats in Experiment 2 (PCT-007).\nTest Article Tranilast was supplied by the Sponsor and stored at −4° C. until use. Gabapentin (100 mg/kg, dissolved in water for injection) was utilized as the positive control for this study.\nTest Article and Vehicle Preparation Test article formulations were prepared freshly on the day of administration by weighing the appropriate amount of bulk powder and suspending it in the required volume of vehicle. Carboxymethyl cellulose ((CMC) 0.5% in water for injection) was utilized as the vehicle for this study.\nTest Article Administration. […] The maximum oral gavage volume administered in this study was […]. 4.4\nSTZ-Diabetic Rat Model of Painful Diabetic Neuropathy. Painful diabetic neuropathy is a common long-term complication of diabetes in humans that develops as a result of a sustained biochemical nerve injury. […] Following the induction of diabetes with intravenous STZ at 70-80 mg/kg, it generally takes 6-8 wks for tactile allodynia, the defining symptom of PDN, to fully develop in both rat hindpaws.\nInduction of STZ-Diabetes in Rats. On day 0, rats were anaesthetized with 3% isoflurane:97% O2 and a short polyethylene cannula (0.5 mm ID, 0.8 mm OD) was inserted into the jugular vein to facilitate the intravenous (i.v.) administration of a single dose of streptozotocin (STZ: 70-80 mg/kg). After STZ injection, the cannula was removed and the jugular vein was tied off and the wound was closed. Rats received subcutaneous benzylpenicillin (60 mg) prior to surgery to prevent infection and were kept warm during surgical recovery. Rats were housed singly prior to further experimentation and were monitored daily from the time of STZ administration with regard to general health and well-being.\nVon Frey Assessment of Paw Withdrawal Thresholds. Calibrated von Frey filaments were used to determine the lowest mechanical threshold required to evoke a brisk paw withdrawal reflex in the rat hindpaws. Briefly, rats were transferred individually to wire mesh testing cages (20 cm×20 cm×20 cm) and allowed to acclimatize for approximately 10-20 min prior to von Frey testing. Commencing with the von Frey filament that produced the 6 g force, the filament was applied to the plantar surface of the hindpaw until the filament buckled slightly. Absence of a response after 3 s prompted use of the next filament of increasing weight. A withdrawal response within 3 s prompted use of the next filament of decreasing weight. Filaments used produced buckling weights of 2, 4, 6, 8, 10, 12, 14, 16, 18 and 20 g. […] Tactile allodynia is regarded as being fully developed when von Frey PWTs in the injured hindpaws are <6 g.\nRestoring von-Frey PWTs in the hindpaws from <6 g to pre-STZ surgery levels (12±2 g) is the treatment goal representing full reversal of tactile allodynia. If drug treatment increases PWTs above pre-surgical baseline values (i.e. >12±2 g), such a response is classified as antinociception. Before administration of STZ, baseline von Frey measurements were assessed. Following STZ administration, baseline PWTs were assessed in the hindpaws at week 8-11 to confirm the development of diabetes-induced tactile allodynia.\nDose-Response Curve for Tranilast in Drug-Naive STZ-Diabetic Rats. […]"}, "STZ-diabetic rats": {"test_system": "STZ-diabetic rats", "assay": "Behavioural observations / adverse effects in STZ-diabetic rats", "assay_type": "in vivo, rat", "settings": "tranilast 30-400 mg/kg oral, 7 consecutive twice-daily bolus doses", "excerpt": "Behavioural Observations. STZ-diabetic rats were monitored for visible and audible signs of distress throughout the testing period. The visible signs of distress included behavioural changes such as complete immobility, movement with abnormal gait, agitation, aggression, wet dog shakes, excessive grooming, restlessness with constant movement, repeated sudden movements or staring."}, "[2]": {"settings": "tranilast 100, 200, 300 and 400 mg/kg oral, 7 consecutive twice-daily doses"}}, "note": "“Also recorded” adds a separate entry of the source.", "data": [{"compound": "COc1ccc(/C=C/C(=O)Nc2ccccc2C(=O)O)cc1OC", "note": "[Tranilast, 2-[[3-(3,4-dimethoxyphenyl)-1-oxo-2-propenyl]amino]benzoic acid]", "values": [{"measurement": "Mean (±SEM) von Frey Paw Withdrawal threshold following the 7th consecutive dose", "setting": "[1]; tranilast 300 mg/kg oral twice-daily, time 0.75 h", "result": "11 ± 1.6", "unit": "g"}, {"measurement": "Mean (±SEM) von Frey Paw Withdrawal threshold following the 7th consecutive dose", "setting": "[1]; tranilast 300 mg/kg oral twice-daily, time 1 h", "result": "12.2 ± 1.3", "unit": "g"}, {"measurement": "Mean (±SEM) von Frey Paw Withdrawal threshold following the 7th consecutive dose", "setting": "[1]; tranilast 300 mg/kg oral twice-daily, time 1.25 h", "result": "13 ± 1.3", "unit": "g"}, {"measurement": "Mean (±SEM) von Frey Paw Withdrawal threshold following the 7th consecutive dose", "setting": "[1]; tranilast 300 mg/kg oral twice-daily, time 1.25 h, listed as tranilast", "result": "13.0 (±1.3) g"}, {"measurement": "Mean (±SEM) von Frey Paw Withdrawal threshold following the 7th consecutive dose", "setting": "[1]; tranilast 300 mg/kg oral twice-daily, time 1.5 h", "result": "12.4 ± 1.1", "unit": "g"}, {"measurement": "Mean (±SEM) von Frey Paw Withdrawal threshold following the 7th consecutive dose", "setting": "[1]; tranilast 300 mg/kg oral twice-daily, time 2 h", "result": "12.0 ± 2.2", "unit": "g"}, {"measurement": "Mean (±SEM) von Frey Paw Withdrawal threshold following the 7th consecutive dose", "setting": "[1]; tranilast 300 mg/kg oral twice-daily, time 3 h", "result": "9.0 ± 2.7", "unit": "g"}, {"measurement": "Relief of tactile allodynia in the hindpaws", "setting": "[1]; tranilast 300 mg/kg oral, 7 consecutive twice-daily doses (n=5)", "result": "significant relief of tactile allodynia"}, {"measurement": "AUC of anti-allodynic response versus time compared with vehicle", "setting": "[1]; tranilast 300 mg/kg oral, 7th consecutive twice-daily dose", "result": "significantly greater (p<0.05)"}, {"measurement": "Mean duration of action", "setting": "[1]; tranilast 300 mg/kg oral", "result": "> 3", "unit": "h"}, {"measurement": "Time of peak anti-allodynia post-dosing", "setting": "[1]; tranilast 300 mg/kg oral", "result": "1 to 1.5", "unit": "h"}, {"measurement": "Mean (±SEM) AUC (area under the normalized PWT versus time curve)", "setting": "[1]; tranilast 300 mg/kg oral", "result": "17.2 ± 3.3"}, {"measurement": "Mean (±SEM) Peak response (PWT)", "setting": "[1]; tranilast 300 mg/kg oral", "result": "13.0 ± 1.3"}, {"measurement": "Mean (±SEM) % MPR at peak", "setting": "[1]; tranilast 300 mg/kg oral", "result": "147.8 ± 23.6", "unit": "%"}, {"measurement": "Mean (±SEM) von Frey Paw Withdrawal threshold assessed prior to dose", "setting": "[1]; tranilast 400 mg/kg oral twice-daily, prior to dose 1", "result": "5.1 ± 0.5", "unit": "g"}, {"measurement": "Mean (±SEM) von Frey Paw Withdrawal threshold assessed prior to dose", "setting": "[1]; tranilast 400 mg/kg oral twice-daily, prior to dose 3", "result": "5.1 ± 0.5", "unit": "g"}, {"measurement": "Mean (±SEM) von Frey Paw Withdrawal threshold assessed prior to dose", "setting": "[1]; tranilast 400 mg/kg oral twice-daily, prior to dose 5", "result": "4.8 ± 0.5", "unit": "g"}, {"measurement": "Mean (±SEM) von Frey Paw Withdrawal threshold assessed prior to dose", "setting": "[1]; tranilast 400 mg/kg oral twice-daily, prior to dose 7", "result": "5.2 ± 0.5", "unit": "g"}, {"measurement": "Mean (±SEM) von Frey Paw Withdrawal threshold following the 7th consecutive dose", "setting": "[1]; tranilast 400 mg/kg oral twice-daily, time 0 h (pre-dose)", "result": "5.2 ± 0.4", "unit": "g"}, {"measurement": "Mean (±SEM) von Frey Paw Withdrawal threshold following the 7th consecutive dose", "setting": "[1]; tranilast 400 mg/kg oral twice-daily, time 0 h (pre-dose), listed as tranilast", "result": "5.2 (±0.4) g"}, {"measurement": "Mean (±SEM) von Frey Paw Withdrawal threshold following the 7th consecutive dose", "setting": "[1]; tranilast 400 mg/kg oral twice-daily, time 0.15 h", "result": "6.0 ± 0", "unit": "g"}, {"measurement": "Mean (±SEM) von Frey Paw Withdrawal threshold following the 7th consecutive dose", "setting": "[1]; tranilast 400 mg/kg oral twice-daily, time 0.5 h", "result": "6.25 ± 0.2", "unit": "g"}, {"measurement": "Mean (±SEM) von Frey Paw Withdrawal threshold following the 7th consecutive dose", "setting": "[1]; tranilast 400 mg/kg oral twice-daily, time 0.75 h", "result": "7.5 ± 0.5", "unit": "g"}, {"measurement": "Mean (±SEM) von Frey Paw Withdrawal threshold following the 7th consecutive dose", "setting": "[1]; tranilast 400 mg/kg oral twice-daily, time 1 h", "result": "8.75 ± 0.25", "unit": "g"}, {"measurement": "Mean (±SEM) von Frey Paw Withdrawal threshold following the 7th consecutive dose", "setting": "[1]; tranilast 400 mg/kg oral twice-daily, time 1 h, listed as tranilast", "result": "8.8 (±0.3) g"}, {"measurement": "Mean (±SEM) von Frey Paw Withdrawal threshold following the 7th consecutive dose", "setting": "[1]; tranilast 400 mg/kg oral twice-daily, time 1.25 h", "result": "7.8 ± 0.25", "unit": "g"}, {"measurement": "Mean (±SEM) von Frey Paw Withdrawal threshold following the 7th consecutive dose", "setting": "[1]; tranilast 400 mg/kg oral twice-daily, time 1.5 h", "result": "8.0 ± 0", "unit": "g"}, {"measurement": "Mean (±SEM) von Frey Paw Withdrawal threshold following the 7th consecutive dose", "setting": "[1]; tranilast 400 mg/kg oral twice-daily, time 2 h", "result": "7.8 ± 0.25", "unit": "g"}, {"measurement": "Mean (±SEM) von Frey Paw Withdrawal threshold following the 7th consecutive dose", "setting": "[1]; tranilast 400 mg/kg oral twice-daily, time 3 h", "result": "6.5 ± 0.3", "unit": "g"}, {"measurement": "Mean duration of action", "setting": "[1]; tranilast 400 mg/kg oral", "result": 3, "unit": "h"}, {"measurement": "Time of peak anti-allodynia post-dosing", "setting": "[1]; tranilast 400 mg/kg oral", "result": "0.75 to 1.25", "unit": "h"}, {"measurement": "Mean (±SEM) AUC (area under the normalized PWT versus time curve)", "setting": "[1]; tranilast 400 mg/kg oral", "result": "6.3 ± 0.9"}, {"measurement": "Mean (±SEM) Peak response (PWT)", "setting": "[1]; tranilast 400 mg/kg oral", "result": "8.75 ± 0.25"}, {"measurement": "Mean (±SEM) % MPR at peak", "setting": "[1]; tranilast 400 mg/kg oral", "result": "62.2 ± 4.2", "unit": "%"}, {"measurement": "Peak anti-allodynic response compared with vehicle", "setting": "[1]; [2]", "result": "significantly (p<0.05) greater"}, {"measurement": "Relief of tactile allodynia in the hindpaws", "setting": "[1]; [2]", "result": "significant relief of tactile allodynia; also recorded: anti-allodynia was produced"}, {"measurement": "% MPR at the time of peak effect compared with vehicle", "setting": "[1]; tranilast 100, 200, 300 and 400 mg/kg oral, 7th consecutive twice-daily dose", "result": "significantly greater than that for vehicle"}, {"measurement": "AUC of anti-allodynic response versus time compared with vehicle", "setting": "[1]; tranilast 100, 200 and 400 mg/kg oral, 7th consecutive twice-daily dose", "result": "did not reach statistical significance"}, {"measurement": "Dosing regimen producing the maximum anti-allodynic effect", "setting": "[1]; tranilast 100-400 mg/kg oral, 7 consecutive twice-daily doses", "result": "maximum anti-allodynic effect appeared to be produced by the 300 mg/kg dosing regimen"}, {"measurement": "Baseline PWT thresholds assessed prior to dose 1, 3, 5 and 7", "setting": "[1]; tranilast at all doses (100-400 mg/kg oral twice-daily)", "result": "not significantly different"}, {"measurement": "Adverse (behavioural) effects", "setting": "STZ-diabetic rats", "result": "no discernible adverse effects; also recorded: did not produce discernible adverse behavioural effects"}]}]}
